# In patent publication US9468650B2, “Inhibition of endosomal toll-like receptor activation” (DUKE UNIVERSITY, priority 2009, dated 2016):
# Columns and labels:
# mammalian cell lines = conditions: cited from earlier work
# [1] = mouse, in vivo, 40 mg/kg
# TLR3 = assay: Cytokine production (TNFα, IL-6) of murine macrophage Raw264.7 stimulated with poly I:C; format: cell-based; conditions: TNFα and IL-6 by ELISA
# [2] = mouse, in vivo; cited from earlier work
Substance,cytotoxicity (remark) (mammalian cell lines),adverse effects on viability of mice [1],concentration inducing over 50% cell death (Raw264.7 cells),other results
Poly(allylamine) [PAL],1. Commercially available. 2. Highly positive charged 3. Low toxicity.,,,
Polyethyleneimine [PEI],3. high cytotoxicity.,,,
"polyamidoamine dendrimer, 1,4-diaminobutane core, G3 [PAMAM]",,no adverse effects on viability,about 160 μg/ml,
protamine [reference compound],,,~280 µg/mL,effect on poly I:C (TLR3 ligand) induced inflammatory cytokine production (TLR3): did not block but significantly enhanced
β-cyclodextrin-containing polycation [CDP],,no adverse effects on viability,,LD50 [2]: 200 mg/kg; tolerability on macrophages (Raw264.7 cells): well tolerated
